Assays:
[1] = test system: A-427; assay: MTT test, cytotoxic activity on non-clonogenic cell lines; type: cell-based; conditions: Homo sapiens, 10^−5 M, 72 hours of incubation, control condition = 100%, mean value, read-out: mean optical density as percentage of control, A-427
Description: (§1) The principle of the MTT test is based on the mitochondrial reduction, by the metabolically active live cells, of the yellow-colored product MTT (3-(4,5-dimethylthiazol-2-yl)-2,5-diphenyltetrazolium bromide) to a blue-colored product, formazan. The amount of formazan thus obtained is directly proportional to the amount of live cells present in the culture well(s). This amount of formazan is measured by spectrophotometry.
(§2) The cell lines are maintained as a monolayer culture at 37° C. in stoppered culture dishes containing MEM 25 MM HEPES (Minimum Essential Medium) base medium. This medium is suited to the growth of a range of various mammalian diploid or primary cells. This medium is then supplemented with:
(§3) The 12 human cancer cell lines which were used were obtained from the American Type Culture Collection (ATCC, Rockville, Md., USA). These 12 cell lines are:
(§4) Experimentally, 100 μl of a cell suspension containing 20 000 to 50 000 (depending on the cell type used) cells/ml of culture medium are inoculated -in 96-well flat-bottomed multi-well plates and are left to stand in an incubator at 37° C., 5% CO2 and 70% humidity. After an incubation time of 24 hours, the culture medium is replaced with 100 μl of fresh medium containing either the various test compounds—at concentrations varying from 10^−5 to 10^−10 M—or the solvent having served for dissolving the products to be tested (control condition). […] The microplates are thus incubated for 3 hours at 37° C., then centrifuged for 10 minutes at 400 g. The yellowish solution of MTT is removed and the blue formazan crystals formed in the cell region are dissolved in 100 μl or DMSO. The microplates are then shaken for 5 minutes. […] Software incorporated in the spectrophotometer calculates the average optical density values and the standard deviation (SD) and standard error of mean (SEM) values.

[2] = test system: A549; assay: as above; type: cell-based; conditions: Homo sapiens, 10^−5 M, 72 hours of incubation, control condition = 100%, mean value, read-out: mean optical density as percentage of control, A549
Description: as §1, §2, §3, §4

[3] = test system: HCT-15; assay: as above; type: cell-based; conditions: Homo sapiens, 10^−5 M, 72 hours of incubation, control condition = 100%, mean value, read-out: mean optical density as percentage of control, HCT-16
Description: as §1, §2, §3, §4

[4] = test system: LoVo; assay: as above; type: cell-based; conditions: Homo sapiens, 10^−5 M, 72 hours of incubation, control condition = 100%, mean value, read-out: mean optical density as percentage of control, LoVo
Description: as §1, §2, §3, §4

[5] = test system: MCF7; assay: as above; type: cell-based; conditions: Homo sapiens, 10^−5 M, 72 hours of incubation, control condition = 100%, mean value, read-out: mean optical density as percentage of control, MCF7
Description: as §1, §2, §3, §4

[6] = test system: PC-3; assay: as above; type: cell-based; conditions: Homo sapiens, 10^−5 M, 72 hours of incubation, control condition = 100%, mean value, read-out: mean optical density as percentage of control, PC-3
Description: as §1, §2, §3, §4

[7] = test system: T-47D; assay: as above; type: cell-based; conditions: Homo sapiens, T47D; 10^−5 M, 72 hours of incubation, control condition = 100%, mean value; read-out: mean optical density as percentage of control, T-47D
Description: as §1, §2, §3, §4

[8] = test system: U-373MG; assay: as above; type: cell-based; conditions: Homo sapiens, U373 MG; 10^−5 M, 72 hours of incubation, control condition = 100%, mean value; read-out: mean optical density as percentage of control, U-373MG
Description: as §1, §2, §3, §4

[9] = test system: U-87MG; assay: as above; type: cell-based; conditions: Homo sapiens, U-87 MG; 10^−5 M, 72 hours of incubation, control condition = 100%, mean value; read-out: mean optical density as percentage of control, U-87MG
Description: as §1, §2, §3, §4

[10] = test system: SW1088; assay: as above; type: cell-based; conditions: Homo sapiens, 10^−5 M, 72 hours of incubation, control condition = 100%, mean value, read-out: mean optical density as percentage of control, SW1088
Description: as §1, §2, §3
SW1088 (code ATCC: HTB-12) which is an astro-cytoma,
as §4

[11] = test system: J82; assay: as above; type: cell-based; conditions: Homo sapiens, 10^−5 M, 72 hours of incubation, control condition = 100%, mean value, read-out: mean optical density as percentage of control, J82
Description: as §1, §2, §3
(§5) J82 (code ATCC: HTB-1) and T24 (code ATCC: HTB-4) which are two bladder cancers,
as §4

[12] = test system: T24; assay: as above; type: cell-based; conditions: Homo sapiens, T-24; 10^−5 M, 72 hours of incubation, control condition = 100%, mean value; read-out: mean optical density as percentage of control, T24
Description: as §1, §2, §3, §5, §4

[13] = Determination of the maximum tolerated dose (MTD); conditions: B6D2F1/Jico, mouse, in vivo, ip; single intraperitoneal administration, doses 2.5 to 160 mg/kg, survival over 14 days
Description: The evaluation of the maximum tolerated dose was performed on 4- to 6-week-old B6D2F1/Jico mice. The compounds were administered intraperitoneally at increasing doses ranging from 2.5 to 160 mg/kg. The value of the MTD (expressed in mg/kg) is determined from the observation of the survival rate of the animals over a 14-day period after a single administration of the product under consideration. The change in weight of the animals is also monitored during this period. When the MTD value is greater than 160 mg/kg, the MTD value is considered as being 160 mg/kg by default.

| SMILES | viability at 10 µM [1] [%] | viability at 10 µM [2] [%] | viability at 10 µM [3] [%] | viability at 10 µM [4] [%] | viability at 10 µM [5] [%] | viability at 10 µM [6] [%] | viability at 10 µM [7] [%] | viability at 10 µM [8] [%] | viability at 10 µM [9] [%] | viability at 10 µM [10] [%] | viability at 10 µM [11] [%] | viability at 10 µM [12] [%] | MTD at 14 day [13] [mg/kg] |
| --- | --- | --- | --- | --- | --- | --- | --- | --- | --- | --- | --- | --- | --- |
| O=c1c(-c2ccccc2)c[nH]c2ccccc12 [CRL8326, 3-Phenyl-1,4-dihydro-4-quinolinone] | 101 | 104 | 110 | 67.7 | 94.1 | 95.4 | 50.2 | 96.9 | 102 | 108 | 86.9 | 92.6 | > 160 |
| COc1ccc(-c2c[nH]c3ccccc3c2=O)cc1 [CRL8327, 3-(4-Methoxyphenyl)-1,4-dihydro-4-quinolinone] | 77.5 | 71.5 | 87.5 | 47.3 | 90.7 | 87.4 | 79 | 58.7 | 89 | 99 | 85.1 | 187 | > 160 |
| COc1cccc2c(=O)c(-c3ccccc3)c[nH]c12 [CRL8328, 8-Methoxy-3-phenyl-1,4-dihydro-4-quinolinone] | 101 | 92.5 | 85.8 | 94.3 | 93.7 | 91.9 | 96 | 98.1 | 85.7 | 91 | 95.9 | 94.8 | 80 |
| COc1ccc(-c2c[nH]c3c(OC)cccc3c2=O)cc1 [CRL8329, 8-Methoxy-3-(4-methoxyphenyl)-1,4-dihydro-4-quinolinone] | 102 | 96.5 | 98 | 94.6 | 96.3 | 93.1 | 78.5 | 94 | 1.38 | 96.2 | 96.8 | 95.4 | > 160 |
| COc1ccc(-c2c[nH]c3cc(OC)cc(OC)c3c2=O)cc1 [CRL8337, 5,7-Dimethoxy-3-(4-methoxyphenyl)-1,4-dihydro-4-quinolinone] | 106 | 96.9 | 98.5 | 93.3 | 76.5 | 92.8 | 79.4 | 95.6 | 84.4 | 84.9 | 90.9 | 102 | > 160 |
| COc1ccc(-c2cn(C)c3cc(OC)cc(OC)c3c2=O)cc1 [CRL8340, 5,7-Dimethoxy-3-(4-methoxyphenyl)-1-methyl-1,4-dihydro-4-quinolinone] | 84.2 | 84 | 92.5 | 93 | 72.3 | 84.8 | 66.1 | 97.9 | 87.6 | 84 | 90.2 | 82.8 | > 160 |
| CCN(CC)C(=O)Cn1cc(-c2ccc(OC)cc2)c(=O)c2c(OC)cc(OC)cc21 [CRL8349, N,N-Diethyl-2-[5,7-dimethoxy-3-(4-methoxyphenyl)-4-oxo-1,4-dihydro-1-quinolinyl]acetamide] | 90.7 | 96.2 | 91.2 | 104 | 97.4 | 98.6 | 91 | 66.7 | 98.3 | 100 | 93.3 | 95.1 | > 160 |
| COc1ccc(-c2cn(CCN(C)C)c3cc(OC)cc(OC)c3c2=O)cc1 [CRL8350, N-[3-(Dimethylamino)ethyl]-5,7-dimethoxy-3-(4-methoxyphenyl)-1,4-dihydro-4-quinolinone] | 99.5 | 93 | 95.3 | 92 | 181 | 95.3 | 87.1 | 59.5 | 85.6 | 101 | 91.5 | 86.9 | > 160 |
| COc1ccc(-c2c[nH]c3c(OC)ccc(OC)c3c2=O)cc1 [CRL8351, 5,8-Dimethoxy-3-(4-methoxyphenyl)-1,4-dihydro-4-quinolinone] | 33.7 | 34.6 | 39.1 | 67 | 49 | 83.2 | 55 | 52.8 | 116 | 82.3 | 39.2 | 38.4 | 40 |
| COc1cc(OC)c2c(=O)c(-c3ccccc3)c[nH]c2c1 [CRL8352, 5,7-Dimethoxy-3-phenyl-1,4-dihydro-4-quinolinone] | 103 | 94.2 | 106 | 103 | 85.6 | 97.3 | 105 | 104 | 158 | 96.8 | 93 | 83.7 | > 160 |
| COc1ccc(OC)c2c(=O)c(-c3ccccc3)c[nH]c12 [CRL8353, 5,8-Dimethoxy-3-phenyl-1,4-dihydro-4-quinolinone] | 52.5 | 42.3 | 55.7 | 85.5 | 49.6 | 81 | 87.2 | 54.5 | 107 | 74 | 79.1 | 68.6 | > 160 |

From US6645983B1, “Pharmaceutical compositions comprising 4-quinolones for treating cancers” (Laboratoire L. Lafon, priority 1999, dated 2003)
